{"source": "patent US6287859A", "about": "“Identification, functional expression and chromosal localization of a sustained human proton-gated cation channel” (priority 1999, dated 2001)", "key": {"[1]": {"target": "T1, hASIC3 (Homo sapiens, UniProt Q9UHC3)", "T1 construct": "expressed in transfected cells; host or cells: COS cells (DEAE-Dextran, hASIC3-PCI with CD8 marker)", "T1 sequence (Q9UHC3 1-531)": "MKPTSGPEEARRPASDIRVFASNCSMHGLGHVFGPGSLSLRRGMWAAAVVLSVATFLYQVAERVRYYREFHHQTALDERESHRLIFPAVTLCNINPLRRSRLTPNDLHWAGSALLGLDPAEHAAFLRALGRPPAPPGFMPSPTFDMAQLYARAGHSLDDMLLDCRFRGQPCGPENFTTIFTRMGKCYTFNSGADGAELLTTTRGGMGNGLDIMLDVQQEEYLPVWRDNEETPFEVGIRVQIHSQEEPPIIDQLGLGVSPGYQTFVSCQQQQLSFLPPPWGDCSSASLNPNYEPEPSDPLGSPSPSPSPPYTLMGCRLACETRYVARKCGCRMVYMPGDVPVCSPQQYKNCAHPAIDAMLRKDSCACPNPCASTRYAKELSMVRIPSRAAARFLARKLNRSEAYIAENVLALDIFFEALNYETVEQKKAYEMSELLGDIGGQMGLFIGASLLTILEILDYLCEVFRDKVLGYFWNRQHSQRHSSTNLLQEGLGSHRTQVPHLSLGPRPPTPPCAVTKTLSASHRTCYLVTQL", "test": "H+-gated hASIC3 whole-cell current in transfected COS cells", "type": "cell-based", "text": "(§1) The vector containing the hASIC3 coding sequence was linearized with NotI and blunt ended with T4 DNA polymerase. After inactivation of the T4 DNA polymerase, the hASIC3 coding sequence was excised with EcoRI and subsequently subcloned into the EcoRI/SalI (blunt) digested PCI expression vector (Promega). COS cells, at a density of 20.000 cells per 35 mm diameter petri dish, were transfected with a mix of CD8 and hASIC3-PCI (1:5) using the DEAE-Dextran method. Cells were used for electrophysiological measurements one to three days after transfection. Successfully transfected cells were recognised by their ability to fix CD8-antibody-coated beads. Ion currents were recorded using either the whole cell or outside-out patch-clamp technique. The pipette solution contained (in mM): KCl 120, NaCl 30, MgCl2 2, EGTA 5, HEPES 10 (pH 7.2). The bath solution contained in mM: NaCl 140, KCl 5, MgCl2 2, CaCl2 2, HEPES 10 (pH 7.3). Changes in extracellular pH were induced by opening one out of six outlets of a microperfusion system in front of the cell or patch. Test solutions having a pH of less then 6 were buffered with 10 mM MES rather than HEPES but were identical to the control solution in all other respects. Experiments were carried out at room temperature (20-24° C.)."}, "[2]": {"target": "T2, rASIC1A channel (Rattus norvegicus, UniProt P55926)", "T2 construct": "cDNA isolated from rat brain codes for a protein of 526 amino acids; expressed in transfected cells; host or cells: Xenopus laevis oocytes injected with cRNA", "T2 sequence (P55926 1-526)": "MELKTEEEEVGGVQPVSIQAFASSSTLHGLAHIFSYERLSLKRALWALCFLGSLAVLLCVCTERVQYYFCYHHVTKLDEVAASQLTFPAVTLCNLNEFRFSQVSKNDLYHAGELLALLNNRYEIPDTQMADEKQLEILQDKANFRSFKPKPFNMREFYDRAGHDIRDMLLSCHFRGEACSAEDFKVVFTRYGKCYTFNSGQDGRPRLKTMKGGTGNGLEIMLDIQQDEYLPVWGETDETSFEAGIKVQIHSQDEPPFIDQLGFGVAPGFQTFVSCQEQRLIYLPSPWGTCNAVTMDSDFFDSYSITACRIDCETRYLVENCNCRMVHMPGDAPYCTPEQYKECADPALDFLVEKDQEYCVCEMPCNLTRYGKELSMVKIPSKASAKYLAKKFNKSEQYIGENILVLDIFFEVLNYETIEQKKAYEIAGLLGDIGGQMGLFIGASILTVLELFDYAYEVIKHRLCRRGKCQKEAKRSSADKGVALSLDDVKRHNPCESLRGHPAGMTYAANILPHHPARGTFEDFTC", "test": "Proton-activated rASIC1A current in Xenopus oocytes (voltage clamp and outside-out patch)", "type": "cell-based", "procedure": "0.25 ng of cRNA was injected into the Xenopus laevis oocytes and the recording microelectrodes for the imposed voltage and for the patch-clamp were installed two days after the injection. The bath solutions for the outside-out patch recordings and the pipettes for the outside-out patch and total cells recordings contained: 140 mM KCl (or NMDG), 2 mM MgCl2, 5 mM EGTA, 10 mM Hepes, pH 7.4 (with KOH). The pipettes for the outside-out patch recordings and the bath solutions for the outside-out patch and total cells recordings contained: 140 mM NaCl (or LiCl or NMDGCl), 2 mM MgCl2, 1.8 mM CaCl2, 10 mM Hepes, pH 7.4 (adjusted with HCl, NaOH, LiOH or TMAOH). The intracellular acidification of the oocytes was implemented by injecting […] of the internal solution at pH 2 or by perfusion and withdrawal of a bath medium containing 20 mM NH4 Cl. […] The data were sampled at 2 kHz and filtered at 500 Hz for the analysis (Logiciel Biopatch)."}, "[3]": {"target": "T1, hASIC3", "test": "hASIC3 single channel currents in outside-out patches from transfected COS cells", "type": "cell-based", "settings": "100 μM, outside-out patch, -60 mV, resting pH 7.3", "text": "as §1"}, "[4]": {"test_system": "perception of acid taste", "settings": "ref [2]; cited from earlier work"}, "[5]": {"test_system": "proton-activated cationic channels of sensory neurons", "settings": "refs [18], [19]; cited from earlier work"}, "[6]": {"settings": "H+-activated current, pH change from pH 7.4 to pH 6, -70 mV, oocytes, outside-out patch at 0 mV, read-out: Kd, reversible block of the rASIC1A channel"}}, "note": "“Also recorded” adds a separate entry of the source. Read-outs that look alike come from different tables or passages of the source."}
{"smiles": "N=C(N)NC(=O)c1nc(Cl)c(N)nc1N", "note": "[amiloride]", "values": [{"measurement": "IC50", "setting": "[1]; cells clamped at -60 mV, currents as fraction of mean current in absence of drug, read-out: K0.5, dose-response curve for inhibition of hASIC3 current", "value": 15.9, "unit": "µM"}, {"measurement": "Effect on the sustained hASIC3 current", "setting": "[1]; COS cells", "value": "virtually not affected"}, {"measurement": "Kd", "setting": "[1]; transient current, COS cells, read-out: KD, inhibition of the transient hASIC3 current", "value": 15.9, "unit": "µM"}, {"measurement": "Kd", "setting": "[2]", "value": 10, "unit": "µM"}, {"measurement": "Effect on spontaneous hASIC3 channel activity at pH 7.3", "setting": "[3]", "value": "inhibited; also recorded: disappears"}, {"measurement": "Effect on perception of acid taste", "setting": "[4]", "value": "inhibits the perception of acid taste"}, {"measurement": "Effect on the inflowing current activated by H+ in sensory neurons", "setting": "[5]", "value": "inhibited"}]}
{"smiles": "Nc1nc(N)c2nc(-c3ccccc3)c(N)nc2n1", "note": "[triamterene]", "values": [{"measurement": "Effect on the sustained hASIC3 current", "setting": "[1]; COS cells", "value": "virtually not affected"}, {"measurement": "Effect on the transient hASIC3 current", "setting": "[1]; transient current, COS cells", "value": "inhibited"}]}
{"smiles": "CCN(c1nc(N)c(C(=O)NC(=N)N)nc1Cl)C(C)C", "note": "[EIPA, ethylisopropylamiloride]", "values": [{"measurement": "Kd", "setting": "[2]; [6]", "value": 10, "unit": "µM"}, {"measurement": "Effect on the inflowing current activated by H+ in sensory neurons", "setting": "[5]", "value": "inhibited"}]}
{"smiles": "NC(=NCc1ccccc1)NC(=O)c1nc(Cl)c(N)nc1N", "note": "[benzamil]", "values": [{"measurement": "Kd", "setting": "[2]; [6]", "value": 10, "unit": "µM"}]}
